The record followed here is publication PMC5589648, “Acetyl-lupeolic acid inhibits Akt signaling and induces apoptosis in chemoresistant prostate cancer cells in vitro and in vivo” (Oncotarget, 2017).

Each structure is given as a SMILES string.

The target of assay [1] is T1, Akt1 (Homo sapiens, UniProt P31749).
T1 construct: active recombinant human Akt1
The experiment in a line: in vitro kinase assay, [γ-32P]ATP, GST-GSK-3β substrate. Type of assay: biochemical.

In assay [2] the target is T2, Akt3 (Homo sapiens, UniProt Q9Y243).
T2 construct: active recombinant human Akt3
The assay is described as above. The assay is classed as biochemical.

T2 sequence (Q9Y243 2-479): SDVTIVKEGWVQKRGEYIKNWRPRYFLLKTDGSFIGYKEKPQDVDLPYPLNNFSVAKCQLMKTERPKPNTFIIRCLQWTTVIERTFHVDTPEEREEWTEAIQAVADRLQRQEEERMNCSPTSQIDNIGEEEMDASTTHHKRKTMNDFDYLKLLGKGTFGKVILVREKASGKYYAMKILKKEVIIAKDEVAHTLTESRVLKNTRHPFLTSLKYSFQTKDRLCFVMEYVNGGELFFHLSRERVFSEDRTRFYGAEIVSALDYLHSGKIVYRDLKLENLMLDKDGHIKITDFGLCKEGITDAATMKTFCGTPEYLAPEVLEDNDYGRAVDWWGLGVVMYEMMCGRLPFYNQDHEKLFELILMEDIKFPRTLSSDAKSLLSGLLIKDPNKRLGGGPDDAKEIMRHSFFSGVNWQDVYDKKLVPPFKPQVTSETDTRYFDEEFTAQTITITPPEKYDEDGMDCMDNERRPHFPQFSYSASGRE
T1 sequence (P31749 whole entry): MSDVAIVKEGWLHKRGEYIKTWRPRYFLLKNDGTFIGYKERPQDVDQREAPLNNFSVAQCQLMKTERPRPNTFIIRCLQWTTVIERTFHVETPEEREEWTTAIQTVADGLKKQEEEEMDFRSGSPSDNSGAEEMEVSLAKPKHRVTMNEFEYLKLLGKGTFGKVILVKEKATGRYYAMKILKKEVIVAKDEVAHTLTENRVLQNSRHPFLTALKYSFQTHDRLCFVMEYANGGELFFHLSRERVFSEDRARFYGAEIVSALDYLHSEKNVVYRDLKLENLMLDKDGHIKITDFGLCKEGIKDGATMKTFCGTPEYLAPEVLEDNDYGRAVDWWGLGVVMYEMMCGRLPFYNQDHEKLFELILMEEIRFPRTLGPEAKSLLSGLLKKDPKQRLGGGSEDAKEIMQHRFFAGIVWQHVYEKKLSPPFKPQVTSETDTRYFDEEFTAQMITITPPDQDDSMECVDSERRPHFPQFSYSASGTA

As to `C=C(C)[C@@H]1CC[C@]2(C)CC[C@]3(C)[C@H](CC[C@@H]4[C@@]5(C)CC[C@H](O)C(C)(C)[C@@H]5CC[C@]43C)[C@@H]12` [lupeol], the “in vitro kinase assay, [γ-32P]ATP, GST-GSK-3β substrate” value was “Compared to ac-LA, lupeol was about threefold less potent in the inhibition of Akt1 and Akt3 isoforms” in assay [1]; “Compared to ac-LA, lupeol was about threefold less potent in the inhibition of Akt1 and Akt3 isoforms” in assay [2].
